Experiments:
[1] = molecular target: T1, Serine/threonine-protein kinase Sgk3 (Homo sapiens) (UniProt Q96BR1); assay: Selectivity interaction (KinomeScan (DiscoverX)) EUB0001079a SGK3; conditions: at 1 µM
T1 sequence (whole entry): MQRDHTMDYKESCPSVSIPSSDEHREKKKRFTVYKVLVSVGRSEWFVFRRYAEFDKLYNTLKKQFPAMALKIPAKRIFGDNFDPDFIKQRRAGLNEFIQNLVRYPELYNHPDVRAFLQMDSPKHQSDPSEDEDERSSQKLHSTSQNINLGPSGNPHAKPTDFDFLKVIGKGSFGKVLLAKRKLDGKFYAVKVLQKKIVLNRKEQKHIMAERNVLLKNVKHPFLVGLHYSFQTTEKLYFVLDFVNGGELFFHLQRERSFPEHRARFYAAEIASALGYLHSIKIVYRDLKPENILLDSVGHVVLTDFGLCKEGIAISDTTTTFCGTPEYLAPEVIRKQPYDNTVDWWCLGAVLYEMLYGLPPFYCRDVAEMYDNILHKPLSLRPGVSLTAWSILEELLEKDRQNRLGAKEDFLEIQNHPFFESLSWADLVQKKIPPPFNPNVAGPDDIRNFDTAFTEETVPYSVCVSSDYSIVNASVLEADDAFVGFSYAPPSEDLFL

[2] = molecular target: T2, Histone-lysine N-methyltransferase EHMT2 (Homo sapiens) (UniProt Q96KQ7); assay: Selectivity interaction (Methyltransferase screen (radiometric assays, panel of 8 PRMTs, 21 protein lysine methyltransferases, 3 DNA methyltransferases, and one RNA methyltransferase)) EUB0000272b EHMT2
T2 sequence (whole entry): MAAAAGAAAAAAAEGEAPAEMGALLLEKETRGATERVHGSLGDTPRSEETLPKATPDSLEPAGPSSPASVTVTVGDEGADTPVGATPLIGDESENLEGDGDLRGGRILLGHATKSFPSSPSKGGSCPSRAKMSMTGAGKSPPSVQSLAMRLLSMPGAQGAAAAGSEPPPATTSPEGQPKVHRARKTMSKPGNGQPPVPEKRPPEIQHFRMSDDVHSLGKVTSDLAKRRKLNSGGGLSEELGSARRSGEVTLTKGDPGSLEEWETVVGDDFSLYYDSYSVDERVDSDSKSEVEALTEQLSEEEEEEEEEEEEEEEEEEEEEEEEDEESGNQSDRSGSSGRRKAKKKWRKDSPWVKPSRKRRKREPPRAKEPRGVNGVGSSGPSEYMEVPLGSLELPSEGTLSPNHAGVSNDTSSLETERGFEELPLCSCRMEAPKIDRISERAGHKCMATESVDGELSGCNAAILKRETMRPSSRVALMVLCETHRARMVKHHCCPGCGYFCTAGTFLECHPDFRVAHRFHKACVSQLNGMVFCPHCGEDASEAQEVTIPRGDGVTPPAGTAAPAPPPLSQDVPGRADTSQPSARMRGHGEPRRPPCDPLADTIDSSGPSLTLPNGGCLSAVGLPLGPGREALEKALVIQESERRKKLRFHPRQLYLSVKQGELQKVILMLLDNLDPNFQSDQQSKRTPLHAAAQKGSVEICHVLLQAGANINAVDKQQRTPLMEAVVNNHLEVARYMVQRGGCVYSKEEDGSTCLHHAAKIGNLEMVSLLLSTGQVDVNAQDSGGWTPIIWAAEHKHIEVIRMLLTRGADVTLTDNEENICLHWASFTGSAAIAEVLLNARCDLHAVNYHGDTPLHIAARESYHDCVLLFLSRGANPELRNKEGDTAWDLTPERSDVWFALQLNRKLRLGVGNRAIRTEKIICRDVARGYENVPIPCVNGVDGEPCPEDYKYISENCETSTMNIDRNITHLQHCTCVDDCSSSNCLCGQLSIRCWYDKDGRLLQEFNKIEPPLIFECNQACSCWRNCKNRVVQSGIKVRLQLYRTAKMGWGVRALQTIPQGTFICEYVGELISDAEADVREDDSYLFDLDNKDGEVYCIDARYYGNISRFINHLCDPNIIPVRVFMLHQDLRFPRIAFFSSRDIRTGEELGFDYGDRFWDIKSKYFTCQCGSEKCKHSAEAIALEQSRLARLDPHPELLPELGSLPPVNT

[3] = molecular target: Tyrosine-protein kinase ABL1 (Homo sapiens, UniProt P00519); assay: Selectivity interaction (Upstate Kinase Profiler service (Millipore)) EUB0000056c ABL1; conditions: at 1 µM
Tyrosine-protein kinase ABL1, sequence (P00519 whole entry): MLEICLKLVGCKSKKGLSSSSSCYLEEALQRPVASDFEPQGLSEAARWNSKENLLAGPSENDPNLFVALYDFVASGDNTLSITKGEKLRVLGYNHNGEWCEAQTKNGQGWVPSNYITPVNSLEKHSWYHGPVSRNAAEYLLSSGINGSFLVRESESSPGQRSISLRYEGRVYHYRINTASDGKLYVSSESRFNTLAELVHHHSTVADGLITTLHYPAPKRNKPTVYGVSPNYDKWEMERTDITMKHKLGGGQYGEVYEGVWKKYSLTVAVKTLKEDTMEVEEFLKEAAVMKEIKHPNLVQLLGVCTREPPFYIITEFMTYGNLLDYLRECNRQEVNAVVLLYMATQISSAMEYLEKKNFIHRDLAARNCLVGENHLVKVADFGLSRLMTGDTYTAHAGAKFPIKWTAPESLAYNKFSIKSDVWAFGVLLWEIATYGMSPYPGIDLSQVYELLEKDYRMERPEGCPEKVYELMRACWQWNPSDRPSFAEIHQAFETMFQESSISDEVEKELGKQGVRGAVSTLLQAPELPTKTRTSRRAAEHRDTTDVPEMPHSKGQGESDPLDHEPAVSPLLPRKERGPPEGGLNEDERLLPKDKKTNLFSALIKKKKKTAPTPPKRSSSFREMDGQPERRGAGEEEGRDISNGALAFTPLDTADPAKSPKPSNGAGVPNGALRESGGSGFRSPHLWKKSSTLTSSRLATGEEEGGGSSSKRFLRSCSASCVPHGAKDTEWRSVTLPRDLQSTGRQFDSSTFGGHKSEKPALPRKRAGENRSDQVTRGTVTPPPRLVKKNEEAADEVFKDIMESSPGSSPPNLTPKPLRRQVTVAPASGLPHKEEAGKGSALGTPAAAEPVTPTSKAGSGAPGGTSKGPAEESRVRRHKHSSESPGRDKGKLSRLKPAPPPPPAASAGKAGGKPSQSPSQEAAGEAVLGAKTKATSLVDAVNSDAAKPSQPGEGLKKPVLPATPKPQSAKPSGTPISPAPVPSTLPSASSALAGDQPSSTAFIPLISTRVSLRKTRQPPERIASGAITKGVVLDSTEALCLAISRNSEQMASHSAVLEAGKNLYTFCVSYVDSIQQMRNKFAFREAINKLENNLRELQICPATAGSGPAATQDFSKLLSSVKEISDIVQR

[4] = molecular target: T3, Ephrin type-A receptor 3 (Homo sapiens) (UniProt P29320); assay: Selectivity interaction (KinomeScan (DiscoverX)) EUB0000607a EPHA3; conditions: at 10 µM
T3 sequence (whole entry): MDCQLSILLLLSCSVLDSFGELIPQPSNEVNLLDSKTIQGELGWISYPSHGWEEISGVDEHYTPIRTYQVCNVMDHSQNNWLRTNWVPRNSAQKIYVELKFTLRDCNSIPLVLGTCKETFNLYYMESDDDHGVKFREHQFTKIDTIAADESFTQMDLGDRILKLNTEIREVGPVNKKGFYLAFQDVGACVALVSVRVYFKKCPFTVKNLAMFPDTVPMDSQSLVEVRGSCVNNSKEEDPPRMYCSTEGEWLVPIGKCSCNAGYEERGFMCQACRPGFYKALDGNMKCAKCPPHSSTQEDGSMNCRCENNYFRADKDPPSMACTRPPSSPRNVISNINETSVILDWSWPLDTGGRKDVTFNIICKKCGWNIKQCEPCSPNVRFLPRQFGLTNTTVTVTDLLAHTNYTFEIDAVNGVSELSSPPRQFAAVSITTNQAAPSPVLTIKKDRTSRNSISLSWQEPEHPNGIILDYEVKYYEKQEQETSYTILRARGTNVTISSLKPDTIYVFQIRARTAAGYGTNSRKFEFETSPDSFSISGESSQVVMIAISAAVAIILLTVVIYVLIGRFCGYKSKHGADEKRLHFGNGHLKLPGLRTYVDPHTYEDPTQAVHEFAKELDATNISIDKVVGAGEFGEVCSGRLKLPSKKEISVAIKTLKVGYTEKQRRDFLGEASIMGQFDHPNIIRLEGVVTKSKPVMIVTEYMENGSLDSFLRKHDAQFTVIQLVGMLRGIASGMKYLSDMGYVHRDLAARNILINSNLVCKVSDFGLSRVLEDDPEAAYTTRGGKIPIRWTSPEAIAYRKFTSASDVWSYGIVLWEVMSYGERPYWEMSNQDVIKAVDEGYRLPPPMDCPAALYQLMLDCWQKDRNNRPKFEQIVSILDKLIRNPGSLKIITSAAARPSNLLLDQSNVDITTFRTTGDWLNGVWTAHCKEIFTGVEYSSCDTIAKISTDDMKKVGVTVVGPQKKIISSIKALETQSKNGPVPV

Q: `Nc1cnc(N2CCc3cc(S(=O)(=O)Nc4c(F)cc(Cl)cc4F)cc(N4CCCC4=O)c32)nc1` [TP-020n] was tested. Which % of control [1] did it give?
A: 100%

Q: How did the % of activity ([2]; at 1 µM) turn out when `Cc1cc(C)cc([C@H]2c3cc(C)ccc3NC(=O)CN2C(=O)c2ccc(Br)s2)c1` was run?
A: 95.7%

Q: And the % of activity ([2]; at 10 µM)?
A: 98.3%

Q: Which % of inhibition [3] does the source give for `Cc1ccc(-c2ccc3c(ccc4sc5c(c43)NC[C@@H](C)NC5=O)n2)cn1` here?
A: 18%

Q: With `CNC(=O)Nc1ccc(-c2nc(N3CC4CCC(C3)O4)c3cnn(C4CCC5(CC4)OCCO5)c3n2)cc1` as the molecule, how does the % of control [4] read?
A: 100%

— ChEMBL document CHEMBL5465560, “Selectivity Literature for EUbOPEN Chemogenomic Library” (2024)
